In US20240083857A1, “2-Methyl-Quinazolines” (Bayer Pharma Aktiengesellschaft, priority 2017, published 2024):

Key:
[1] = target: human SOS1 (nucleotide exchange of K-Ras^G12C) (Homo sapiens, UniProt Q07889); experiment: Biochemical assay 2: K-Ras^G12C activation assay by hSOS1 at high GTP concentration (HTRF); conditions: high GTP; read-out: Assay 2 (KRAS-Activation by SOS high GTP) activity expressed as IC50
[2] = target: K-Ras^G12C : hSOS1 interaction (Homo sapiens, UniProt Q07889); experiment: Biochemical assay 1: K-Ras^G12C interaction assay with hSOS1 (HTRF); assay type: binding; conditions: read-out: Assay 1 (KRAS-SOS Interaction) activity expressed as IC50

SMILES: COc1cc2nc(C)nc(NC(C)c3ccc(-c4cnc5n4CCC5)s3)c2cc1OC (single isomer, unassigned; enantiomer 1) [Example 328, N-{1-[5-(6,7-dihydro-5H-pyrrolo[1,2-a]imidazol-3-yl)thiophen-2-yl]ethyl}-6,7-dimethoxy-2-methylquinazolin-4-amine, Enantiomer 1]
- IC50 [1]: 526 nM
- IC50 [2]: 142 nM

SMILES: COc1cc2nc(C)nc(NC(C)c3ccc(-c4cnc5n4CCC5)s3)c2cc1OC (single isomer, unassigned; enantiomer 2) [Example 329, N-{1-[5-(6,7-dihydro-5H-pyrrolo[1,2-a]imidazol-3-yl)thiophen-2-yl]ethyl}-6,7-dimethoxy-2-methylquinazolin-4-amine, Enantiomer 2]
- IC50 [1]: 6470 nM
- IC50 [2]: 2410 nM

SMILES: COc1cc2nc(C)nc(NC(C)c3ccc(-c4ccc(F)cc4CNC(=O)[C@H]4CCCN4)s3)c2cc1OC (stereo in doubt) [Example 316, N-[2-(5-{1-[(6,7-dimethoxy-2-methylquinazolin-4-yl)amino]ethyl}thiophen-2-yl)-5-fluorobenzyl]-prolinamide]
- IC50 [1]: 284 nM
- IC50 [2]: 271 nM

SMILES: COc1cc2nc(C)nc(NC(C)c3cccc4scnc34)c2cc1OC (stereo not drawn) [Example 14, N-[1-(1,3-benzothiazol-4-yl)ethyl]-6,7-dimethoxy-2-methylquinazolin-4-amine]
- IC50 [1]: 608 nM
- IC50 [2]: 666 nM

SMILES: COc1cc2nc(C)nc(NC(C)c3cccc4ccsc34)c2cc1OC (stereo not drawn) [Example 15, N-[1-(1-benzothiophen-7-yl)ethyl]-6,7-dimethoxy-2-methylquinazolin-4-amine]
- IC50 [1]: 91.1 nM
- IC50 [2]: 126 nM

SMILES: COc1cc2nc(C)nc(NC(C)c3cc(C)cc4[nH]ncc34)c2cc1OC (stereo not drawn) [Example 16, 6,7-dimethoxy-2-methyl-N-[1-(6-methyl-1H-indazol-4-yl)ethyl]quinazolin-4-amine]
- IC50 [1]: 3020 nM
- IC50 [2]: 3250 nM

SMILES: COc1cc2nc(C)nc(NC(C)c3cccc4c3cnn4C)c2cc1OC (stereo not drawn) [Example 17, 6,7-dimethoxy-2-methyl-N-[1-(1-methyl-1H-indazol-4-yl)ethyl]quinazolin-4-amine]
- IC50 [1]: 297 nM
- IC50 [2]: 270 nM

SMILES: COc1cc2nc(C)nc(NC(C)c3c(F)ccc4[nH]ncc34)c2cc1OC (stereo not drawn) [Example 18, N-[1-(5-fluoro-1H-indazol-4-yl)ethyl]-6,7-dimethoxy-2-methylquinazolin-4-amine]
- IC50 [1]: 7680 nM
- IC50 [2]: 6500 nM

SMILES: COc1cc2nc(C)nc(NC(C)c3ccc4c(c3)OCCO4)c2cc1OC (stereo not drawn) [Example 19, N-[1-(2,3-dihydro-1,4-benzodioxin-6-yl)ethyl]-6,7-dimethoxy-2-methylquinazolin-4-amine]
- IC50 [1]: 6550 nM
- IC50 [2]: 7780 nM

SMILES: COc1cc2nc(C)nc(NC(C)c3cc4ccccc4o3)c2cc1OC (stereo not drawn) [Example 20, N-[1-(1-benzofuran-2-yl)ethyl]-6,7-dimethoxy-2-methylquinazolin-4-amine]
- IC50 [1]: 8200 nM
- IC50 [2]: 8420 nM

SMILES: COc1cc2nc(C)nc(NC(C)c3cccc(OC)c3OC)c2cc1OC (stereo not drawn) [Example 21, N-[1-(2,3-dimethoxyphenyl)ethyl]-6,7-dimethoxy-2-methylquinazolin-4-amine]
- IC50 [1]: 3230 nM
- IC50 [2]: 3160 nM

SMILES: COc1cc2nc(C)nc(N[C@H](C)c3cccc(-c4ccccc4CN)c3)c2cc1OC [Example 258, N-{(1R)-1-[2′-(aminomethyl)biphenyl-3-yl]ethyl}-6,7-dimethoxy-2-methylquinazolin-4-amine]
- IC50 [1]: 190 nM
- IC50 [2]: 204 nM

SMILES: COc1cc2nc(C)nc(NC(C)c3csc(-c4ccccc4CN)c3)c2cc1OC (stereo not drawn) [Example 259, N-[1-{5-[2-(aminomethyl)phenyl]thiophen-3-yl}ethyl]-6,7-dimethoxy-2-methylquinazolin-4-amine]
- IC50 [1]: 435 nM
- IC50 [2]: 402 nM

SMILES: COc1cc2nc(C)nc(N[C@H](C)c3cccc(CN)c3)c2cc1OC [Example 260, N-{(1R)-1-[3-(aminomethyl)phenyl]ethyl}-6,7-dimethoxy-2-methylquinazolin-4-amine]
- IC50 [1]: 2040 nM
- IC50 [2]: 4880 nM

SMILES: COc1cc2nc(C)nc(N[C@H](C)c3cccc(-c4cnc5n4CCC5)c3)c2cc1OC [Example 261, N-{(1R)-1-[3-(6,7-dihydro-5H-pyrrolo[1,2-a]imidazol-3-yl)phenyl]ethyl}-6,7-dimethoxy-2-methylquinazolin-4-amine]
- IC50 [1]: 873 nM
- IC50 [2]: 839 nM

SMILES: COc1cc2nc(C)nc(NC(C)c3ccc(-c4ccccc4CN(C)C)s3)c2cc1OC (stereo not drawn) [Example 262, N-[1-(5-{2-[(dimethylamino)methyl]phenyl}thiophen-2-yl)ethyl]-6,7-dimethoxy-2-methylquinazolin-4-amine]
- IC50 [1]: 44 nM
- IC50 [2]: 40.3 nM

SMILES: CNCc1ccccc1-c1cc(C(C)Nc2nc(C)nc3cc(OC)c(OC)cc23)cs1 (stereo not drawn) [Example 263, 6,7-dimethoxy-2-methyl-N-[1-(5-{2-[(methylamino)methyl]phenyl}thiophen-3-yl)ethyl]quinazolin-4-amine]
- IC50 [1]: 232 nM
- IC50 [2]: 237 nM

SMILES: COc1cc2nc(C)nc(NC(C)c3cc(Br)cs3)c2cc1OC (stereo not drawn) [Example 264, N-[1-(4-bromothiophen-2-yl)ethyl]-6,7-dimethoxy-2-methylquinazolin-4-amine]
- IC50 [1]: 1670 nM
- IC50 [2]: 5940 nM

SMILES: COc1cc2nc(C)nc(NC(C)c3ccc(-c4cccc(CN)c4)s3)c2cc1OC (stereo not drawn) [Example 265, N-[1-{5-[3-(aminomethyl)phenyl]thiophen-2-yl}ethyl]-6,7-dimethoxy-2-methylquinazolin-4-amine]
- IC50 [1]: 1470 nM
- IC50 [2]: 2770 nM

SMILES: COc1cc2nc(C)nc(NC(C)c3ccc(-c4ccc(CN)cc4)s3)c2cc1OC (stereo not drawn) [Example 266, N-[1-{5-[4-(aminomethyl)phenyl]thiophen-2-yl}ethyl]-6,7-dimethoxy-2-methylquinazolin-4-amine]
- IC50 [1]: 1700 nM
- IC50 [2]: 3610 nM

SMILES: COc1cc2nc(C)nc(NC(C)c3cc(-c4ccn(CCN5CCCC5)n4)cs3)c2cc1OC (stereo not drawn) [Example 267, 6,7-dimethoxy-2-methyl-N-[1-(4-{1-[2-(pyrrolidin-1-yl)ethyl]-1H-pyrazol-3-yl}thiophen-2-yl)ethyl]quinazolin-4-amine]
- IC50 [1]: 1520 nM
- IC50 [2]: 3390 nM

SMILES: CNCc1ccccc1-c1cccc([C@@H](C)Nc2nc(C)nc3cc(OC)c(OC)cc23)c1 [Example 268, 6,7-dimethoxy-2-methyl-N-[(1R)-1-{2′-[(methylamino)methyl]biphenyl-3-yl}ethyl]quinazolin-4-amine]
- IC50 [1]: 151 nM
- IC50 [2]: 166 nM

SMILES: COc1cc2nc(C)nc(NC(C)c3cc(-c4ccc(F)cc4CN)cs3)c2cc1OC (stereo not drawn) [Example 269, N-[1-{4-[2-(aminomethyl)-4-fluorophenyl]thiophen-2-yl}ethyl]-6,7-dimethoxy-2-methylquinazolin-4-amine]
- IC50 [1]: 115 nM
- IC50 [2]: 162 nM

SMILES: COc1cc2nc(C)nc(NC(C)c3cc(-c4ccccc4CN)cs3)c2cc1OC (stereo not drawn) [Example 270, N-[1-{4-[2-(aminomethyl)phenyl]thiophen-2-yl}ethyl]-6,7-dimethoxy-2-methylquinazolin-4-amine]
- IC50 [1]: 82.2 nM
- IC50 [2]: 91.4 nM

SMILES: COc1cc2nc(C)nc(NC(C)c3cc(-c4cnc5n4CCC5)cs3)c2cc1OC (stereo not drawn) [Example 272, N-{1-[4-(6,7-dihydro-5H-pyrrolo[1,2-a]imidazol-3-yl)thiophen-2-yl]ethyl}-6,7-dimethoxy-2-methylquinazolin-4-amine]
- IC50 [1]: 1500 nM
- IC50 [2]: 1820 nM

SMILES: COc1cc2nc(C)nc(NC(C)c3cc(-c4ccn(CCO)n4)cs3)c2cc1OC (stereo not drawn) [Example 273, 2-[3-(5-{1-[(6,7-dimethoxy-2-methylquinazolin-4-yl)amino]ethyl}thiophen-3-yl)-1H-pyrazol-1-yl]ethanol]
- IC50 [1]: 2360 nM
- IC50 [2]: 2320 nM

SMILES: COc1cc2nc(C)nc(N[C@H](C)c3cccc(-c4ccc(F)cc4CN)c3)c2cc1OC [Example 274, N-{(1R)-1-[2′-(aminomethyl)-4′-fluorobiphenyl-3-yl]ethyl}-6,7-dimethoxy-2-methylquinazolin-4-amine]
- IC50 [1]: 141 nM
- IC50 [2]: 130 nM

SMILES: COc1cc2nc(C)nc(NC(C)c3ccc(-c4ccc(CN)o4)s3)c2cc1OC (stereo not drawn) [Example 275, N-[1-{5-[5-(aminomethyl)furan-2-yl]thiophen-2-yl}ethyl]-6,7-dimethoxy-2-methylquinazolin-4-amine]
- IC50 [1]: 2970 nM
- IC50 [2]: 2800 nM

SMILES: COc1cc2nc(C)nc(NC(C)c3ccc(-c4ccc(CN)s4)s3)c2cc1OC (stereo not drawn) [Example 276, N-{1-[5′-(aminomethyl)-2,2′-bithiophen-5-yl]ethyl}-6,7-dimethoxy-2-methylquinazolin-4-amine]
- IC50 [1]: 1660 nM
- IC50 [2]: 1410 nM

SMILES: COc1cc2nc(C)nc(NC(C)c3ccc(-c4ccccc4CNCC(=O)c4c[nH]c5ccccc45)s3)c2cc1OC (stereo not drawn) [Example 277, 2-{[2-(5-{1-[(6,7-dimethoxy-2-methylquinazolin-4-yl)amino]ethyl}thiophen-2-yl)benzyl]amino}-1-(1H-indol-3-yl)ethanone]
- IC50 [1]: 237 nM
- IC50 [2]: 214 nM

SMILES: COc1cc2nc(C)nc(NC(C)c3ccc(-c4cccc5sc(C(N)=O)c(N)c45)s3)c2cc1OC (stereo not drawn) [Example 278, 3-amino-4-(5-{1-[(6,7-dimethoxy-2-methylquinazolin-4-yl)amino]ethyl}thiophen-2-yl)-1-benzothiophene-2-carboxamide]
- IC50 [1]: 3710 nM
- IC50 [2]: 12500 nM

SMILES: COC(=O)CNCc1ccccc1-c1ccc(C(C)Nc2nc(C)nc3cc(OC)c(OC)cc23)s1 (stereo not drawn) [Example 281, methyl N-[2-(5-{1-[(6,7-dimethoxy-2-methylquinazolin-4-yl)amino]ethyl}thiophen-2-yl)benzyl]glycinate]
- IC50 [1]: 447 nM
- IC50 [2]: 559 nM

SMILES: COc1cc2nc(C)nc(NC(C)c3ccc(-c4ccccc4CNCC(=O)N4CCOCC4)s3)c2cc1OC (stereo not drawn) [Example 285, 2-{[2-(5-{1-[(6,7-dimethoxy-2-methylquinazolin-4-yl)amino]ethyl}thiophen-2-yl)benzyl]amino}-1-(morpholin-4-yl)ethanone]
- IC50 [1]: 158 nM
- IC50 [2]: 203 nM
